Assay results published in PMC3462610 (Biochemical Journal, 2011).
Where no end group is shown, it is not given here.

Experiments:
activated His–JNK2–FLAG = activated His–JNK2–FLAG (Homo sapiens, UniProt P45984); test: biochemical
endogenous JNK2 = test: Co-immunoprecipitation of endogenous WDR62 with JNK2, HEK-293T; assay type: binding, human; conditions: anti-WDR62 3G8
Endogenous MKK7 = test: Co-immunoprecipitation of endogenous WDR62 with MKK7, HEK-293T; assay type: binding, human; conditions: anti-WDR62 3G8
JNK1 = test: Co-immunoprecipitation of endogenous WDR62 with JNK1, HEK-293T; assay type: binding, human; conditions: authors attribute it to lower JNK1 expression level
JNK3 = test: GST pull-down with WDR62 1018-C–GST constructs; assay type: binding, human; conditions: HEK-293T
EGFP–JNK1 = test: Immunofluorescence, recruitment of EGFP–JNK1 to cellular granules in HeLa cells; assay type: cell-based, human; conditions: 24 h after transfection, confocal microscopy
MKK7α and MKK7β = conditions: cited from earlier work

activated His–JNK2–FLAG, sequence (P45984 whole entry): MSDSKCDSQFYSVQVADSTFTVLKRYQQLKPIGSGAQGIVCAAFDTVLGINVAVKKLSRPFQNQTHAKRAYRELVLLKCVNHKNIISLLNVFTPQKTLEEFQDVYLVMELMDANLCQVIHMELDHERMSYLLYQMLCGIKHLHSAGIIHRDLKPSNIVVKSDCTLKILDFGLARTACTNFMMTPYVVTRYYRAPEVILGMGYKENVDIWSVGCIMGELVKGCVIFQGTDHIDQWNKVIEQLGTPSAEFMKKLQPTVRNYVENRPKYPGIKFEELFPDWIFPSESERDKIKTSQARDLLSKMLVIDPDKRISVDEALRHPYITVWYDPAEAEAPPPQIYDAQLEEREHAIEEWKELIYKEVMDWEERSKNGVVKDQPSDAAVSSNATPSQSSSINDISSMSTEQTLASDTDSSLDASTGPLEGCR

GRKKRRQRRRPPNHEARANLRLTLSSACDGLL [WDR62 peptide]
IC50 (activated His–JNK2–FLAG): 5 µM

WDR62: full-length WDR62 (endogenous, or Myc-tagged wild-type); JNK scaffold protein
co-precipitation of endogenous JNK2 (endogenous JNK2): presence of endogenous JNK2
co-precipitation of endogenous MKK7 (Endogenous MKK7): also detected
interaction with JNK1 (JNK1): lack of interaction
association with JNK3 (JNK3): strongest association with the neuronal-enriched JNK3 isoform
recruitment of EGFP–JNK1 to cellular granules (EGFP–JNK1): efficiently recruited to these granules

B1: JIP1 scaffold protein: JIP1 (JNK-interacting protein 1) scaffold protein (protein, UniProt Q9UQF2 1-711, looked up)
C-Jun-amino-terminal …: MAERESGGLGGGAASPPAASPFLGLHIASPPNFRLTHDISLEEFEDEDLSEITDECGISLQCKDTLSLRPPRAGLLSAGGGGAGSRLQAEMLQMDLIDATGDTPGAEDDEEDDDEERAARRPGAGPPKAESGQEPASRGQGQSQGQSQGPGSGDTYRPKRPTTLNLFPQVPRSQDTLNNNSLGKKHSWQDRVSRSSSPLKTGEQTPPHEHICLSDELPPQSGPAPTTDRGTSTDSPCRRSTATQMAPPGGPPAAPPGGRGHSHRDRIHYQADVRLEATEEIYLTPVQRPPDAAEPTSAFLPPTESRMSVSSDPDPAAYPSTAGRPHPSISEEEEGFDCLSSPERAEPPGGGWRGSLGEPPPPPRASLSSDTSALSYDSVKYTLVVDEHAQLELVSLRPCFGDYSDESDSATVYDNCASVSSPYESAIGEEYEEAPRPQPPACLSEDSTPDEPDVHFSKKFLNVFMSGRSRSSSAESFGLFSCIINGEEQEQTHRAIFRFVPRHEDELELEVDDPLLVELQAEDYWYEAYNMRTGARGVFPAYYAIEVTKEPEHMAALAKNSDWVDQFRVKFLGSVQVPYHKGNDVLCAAMQKIATTRRLTVHFNPPSSCVLEISVRGVKIGVKADDSQEAKGNKCSHFFQLKNISFCGYHPKNNKYFGFITKHPADHRFACHVFVSEDSTKALAESVGRAFQQFYKQFVEYTCPTEDIYLE
interaction with MKK7α and MKK7β (MKK7α and MKK7β): interacts with both MKK7α and MKK7β
